In patent publication US6982142B2, “Methods for screening therapeutically effective agents” (John Wayne Cancer Institute, priority 1997, dated 2006):
Like-named read-outs stand apart in the source and are kept apart here.

Assays:
MCF-7 cells = test: cells; format: cell-based; conditions: Homo sapiens, MCF7, 96 h, read-out: EC50 (cytotoxicity)
Procedure: (§1) Cytotoxicity Assay. The assay was performed as previously described (Lavie, 1997). […] Cultures were incubated at 37° C. for 24 hr before addition of drug. Drugs were added in FBS-free medium (0.1 ml), and cells were cultured at 37° C. for the indicated periods. Drug cytotoxicity was determined using the Promega 96 Aqueous cell proliferation assay kit. Absorbance at 490 nm was recorded using an ELISA reader (Molecular Devices, San Diego, Calif.).
(§2) Adriamycin was used to assess the influence of GCS transfection on cellular response to anthracyclines. After pretreatment with doxycycline for two days, MCF-7/GCS cells were incubated with increasing concentrations of adriamycin for four days. […] It was observed that MCF-7/GCS cells were resistant to ceramide toxicity as well. […] However, the EC50 in the TC group was nearly identical with that of MCF-7 cells, there being no statistical difference between the two groups (FIG. 14C).

MCF-7/GCS cells = format: cell-based, human; conditions: MCF-7/GCS vs MCF-7
Procedure: as §1, §2

MCF-7-wt cells = test: Cytotoxicity assay (Promega) in chemosensitive wild-type breast cancer cells; format: cell-based, human; conditions: C6-ceramide at increasing concentrations, 72 hr
MCF-7-AdrR cells [1] = test: cells; conditions: Homo sapiens, read-out: cell viability
GCS mRNA = test: Northern blot of GCS mRNA expression in MCF-7/GCS cells; format: cell-based, human
Procedure: (A) Northern Blot showing regulated expression of GCS mRNA in MCF-7 and MCF-7/GCS cells incubated with the indicated concentrations of doxycycline (dox, μg/ml). Total RNA per lane was 15 micrograms. Ethidium bromide-stained RNA (28 S) was used as a control for even loading. Densities of GCS/28 S RNA (×100) in MCF-7/GCS cells were 16, 18, 97, 256 at 0, 0.1, 1.0 and 3.0 μg/ml doxycycline, respectively. (B) Dose-response of GCS activity to doxycycline. Cells were incubated for 96 hr in medium containing the indicated concentrations of doxycycline. GCS activity was analyzed by radioenzymatic assay. * p<0.01, **p<0.001 compared with MCF-7 cells. (C) Doxycycline-induced resistance to ceramide. Cells were pretreated with the indicated concentrations of doxycycline for 48 hr, seeded in 96-well plates, and treated the following day with 5 μM C6ceramide in RPMI-1640 medium containing 5% FBS. Cell viability was determined after 96 hr. Data represent the mean ±SD of six replicates from two independent experiments. Control cells were cultured in medium without C6-ceramide. * p<0.001 compared to MCF-7 cells; **p<0.001, compared to MCF-7 cells exposed to 1.0 μg/ml doxycycline.
RNA Analysis. RNA was extracted from cells using the single-step method described by Chomczynski and Sacchi (Chomczynski, 1987). Equal amounts of total RNA (15 μg) were denatured in 59% formamide/2.2 M formaldehyde, size separated by electrophoresis on 1% agarose-formaldehyde, and then blotted onto nitrocellulose-plus (Sambrook, 1989). GCS cDNA was prepared from pCG-2 plasmid, digested with EcoR I, and Hind III (Stratagene, La Jolla, Calif.). […]
If ceramide resistance is induced by GCS expression in MCF-7/GCS cells, the resistance response should be tightly correlated with the level of the inducer, doxycycline. It was determined that increasing doxycycline concentrations correlated closely with increased expression of GCS, which in turn correlated well with increased resistance of the cells to C6ceramide. […]

[2] = system: glucosylceramide synthase; test: Glucosylceramide synthase radioenzymatic assay on microsomes of Tet-on GCS-transfected clones; format: cell-based, human
Procedure: Glucosylceramide Synthase Assay. To determine the expression of GCS in the hygromycin-resistant clones, a modified radioenzymatic assay was utilized (Lavie, 1997; Shukla, 1990). After incubation in the absence or presence of doxycycline (3 μg/ml, 48 hr), cells were homogenized by sonication in lysis buffer (50 mM Tris-HCl, pH 7.4, 1.0 μg/ml leupeptin, 10 μg/ml aprotinin, 25 μM PMSF). Microsomes were isolated by centrifugation (129,000×g, 60 min). The enzyme assay, containing 50 μg microsomal protein, in a final volume of 0.2 ml, was performed in a shaking water bath at 37° C. for 60 min. The reaction contained liposomal substrate composed of C6-ceramide (1.0 mM), phosphatidylcholine (3.6 mM, MW 786.15), and brain sulfatides (0.9 mM, MW 563). The liposomal substrate was prepared by mixing the components, evaporating the solvents under a stream of nitrogen, and sonicating in water over ice for 1-min using a microtip at 50% output (Kontes, Micro Ultrasonic Cell Disrupter). Other reaction components included sodium phosphate buffer (0.1 M) pH 7.8, EDTA (2.0 mM), MgCl2 (10 mM), dithiothreitol (1.0 mM), β-NAD (2.0 mM), and [^3H]UDP-glucose (0.5 mM). Radiolabeled and unlabeled UDP-glucose were diluted to achieve the desired radiospecific activity (4,700 dpm/nmol). To terminate the reaction, tubes were placed on ice and 0.5 ml isopropanol and 0.4 ml Na2SO4 were added. After brief vortex mixing, 3 ml t-butyl methyl ether was added and the tubes were mixed for 30 sec. After centrifugation, 0.5 ml upper phase which contained GC, was withdrawn and mixed with 4.5 ml EcoLume for analysis of radioactivity by liquid scintillation spectroscopy.
After co-transfection of pTRE-GCS and pTK-Hyg into clone 1 and clone 16 of MCF-7 Tet-on cells, 65 hygromycin-resistant clones were selected. […] Compared with a basal level of 17.2±0.1 pmol GC in MCF-7 wt cells, doxycycline-induced GCS activity in MCF-7/GCS12, […] and MCF-7/GCS14 was to 167.4±17.2, 183.3±12.4, and 90.2±2.76 pmol GC, respectively (FIG. 13A). There were no differences in either basal or doxycycline-induced GCS activity in transfection control cells (TC) or in the basal level of GCS in MCF-7 wt cells (FIG. 13A). In MCF-7/GCS13 and MCF-7/GCS14, the doxycycline-inducible GCS activities were 1.6-fold and 4.1-fold, respectively, above untreated cells. The MCF-7/GCS14 clone was designated MCF-7/GCS, and this clone was used in further experiments.

MCF-7-AdrR cells [3] = test: Cell radiolabeling and TLC/LSC analysis of ceramide, glucosylceramide and sphingomyelin in MDR breast cancer cells; format: cell-based, human; conditions: adriamycin 2.5, PSC 833 5.0 μM, tamoxifen 5.0 μM alone or combined, 24 h, [3H]palmitic acid
Procedure: Cells. Experiments were conducted using the human MDR breast cancer cell line, MCF-7 AdrR (adriamycin resistant) provided by Drs. Kenneth H. Cowan and Merrill E. Goldsmith, National Cancer Institute. Cells were grown in RPMI-1640 medium containing 10% FBS (fetal bovine serum) and antibiotics as previously described (Lavie, 1997) and cultures were maintained in a humidified 6.5% CO2 atmosphere incubator. Trypsin (0.05%) and EDTA (0.5 mM) were used for subculture. Plastic tissue cultureware, was from Costar (96-well plates) and Corning (6-well plates, 6-cm dishes, T-75 flasks). Limited experiments were conducted using the human MDR epidermoid carcinoma cell line, KBV-1, provided by Dr. Michael M. Gottesman, National Cancer Institute. Cells were maintained as described (Lavie, 1996). Vinblastine was eliminated from the culture medium during the experiments.
Cell Radiolabeling and Lipid/Glycolipid Analysis. To follow lipid metabolism, cells were grown in the presence of tritiated ceramide precursors, L-[^3H]serine (20 Ci/mmol) (American Radiolabeled Chemicals, Inc., St. Louis), and [9, 10-^3H]palmitic acid (50 Ci/mmol) (DuPont NEN). Labeling media were prepared by adding microliter amounts of tritiated compounds (supplied in ethanol or sterile water) to medium containing only 5% FBS. After radiolabeling, 0.1 ml aliquots of medium were removed and analyzed by LSC (Lavie, 1997), in order to determine cellular uptake of the tritiated compounds. Cell monolayers were then rinsed twice with cold phosphate-buffered saline. Ice cold methanol containing 2% acetic acid was added, and cells were scraped free of the substratum (plastic scraper) for lipid extraction using chloroform and water in 1-dram glass vials as described (Lavie, 1997; Lavie, 1996; Bligh and Dyer, 1959). After centrifugation, the resulting organic lower phase of the biphasic extraction was withdrawn, transferred to a glass vial, and evaporated to dryness under a stream of nitrogen.
Radioactivity in glucosylceramide was analyzed by TLC resolution of total lipids (Silica Gel G) using a solvent system containing chloroform/methanol/ammonium hydroxide (80:20:2, v/v/v). Migration of glucosylceramide on TLC was compared with that of commercial standard (glucocerebrosides, Gaucher's spleen, Matreya, Inc., Pleasant Gap, Pa.), and lipid spots, after iodine vapor visualization, were scraped for tritium quantitation by LSC (Lavie, 1997; Lavie, 1996). […] Ceramide and sphingomyelin commercial standards (brain-derived) were from Avanti Polar Lipids, Alabaster, Ala. After iodine visualization of lipids, areas of the chromatogram corresponding to ceramide and sphingomyelin were scraped into minivials containing 0.5 ml water followed by 4.5 ml EcoLume (ICN, Costa Mesa, Calif.), and samples were analyzed for tritium by liquid scintillation spectrometry. Alternative analysis of ceramide consisted of subjecting an aliquot of the total cell lipid extract to mild alkaline hydrolysis (0.1 N KOH in methanol, 1 h at 37° C.) followed by re-extraction (Lavie, 1997). […] The same can also be done without tritium by simply applying 100-200 μg total cell lipid to TLC plates and developing them in the appropriate solvent, then spraying them with 30% H2SO4, charring the plate in an oven at 180° C. for 20 min, and measuring lipid mass by densitometry.

With `CCCCCCCCCCCCC/C=C/[C@@H](O)[C@H](CO)NC(=O)CCCCC` [C6-ceramide, N-hexanoylsphingosine] the EC50 (MCF-7 cells) was 3.1 ± 0.5 µM, the “EC50 in MCF-7/GCS cells relative to EC50 in MCF-7 cells” value (MCF-7/GCS cells) was 4 fold and the “EC50 in MCF-7/GCS cells relative to EC50 in MCF-7 cells” value (MCF-7/GCS cells; listed as ceramide) was 5 fold. For the same molecule, the “cell viability, dose-response” value (MCF-7-wt cells) was “dose dependent decrease in viability”, the viability at 10 µM (MCF-7-AdrR cells [1]; 72 h) was 84% and the viability at 5 µM (MCF-7-AdrR cells [1]) was 86%.

`C[C@H]1c2cccc(O)c2C(=O)C2=C(O)[C@]3(O)C(=O)C(C(N)=O)=C(O)[C@@H](N(C)C)[C@@H]3[C@@H](O)[C@@H]21.Cl` [doxycycline, Doxycycline hydrochloride] was tested, and the “GCS mRNA density (GCS band/28 S RNA×100)” value (GCS mRNA; doxycycline 0.1 μg/ml) was 18, the “GCS mRNA density (GCS band/28 S RNA×100)” value (GCS mRNA; doxycycline 1.0 μg/ml) was 97 and the “GCS mRNA density (GCS band/28 S RNA×100)” value (GCS mRNA; doxycycline 3.0 μg/ml) was 256. The “doxycycline-induced GCS activity” value ([2]; clone MCF-7/GCS3 (so in the source), doxycycline 3 μg/ml) was 183.3±12.4 pmol GC, the “doxycycline-induced GCS activity” value ([2]; clone MCF-7/GCS12, doxycycline 3 μg/ml) was 167.4±17.2 pmol GC and the “doxycycline-inducible GCS activity above untreated cells” value ([2]; clone MCF-7/GCS13) was 1.6 fold. For the same molecule, the “doxycycline-inducible GCS activity above untreated cells” value ([2]; clone MCF-7/GCS14) was 4.1 fold and the “doxycycline-induced GCS activity” value ([2]; clone MCF-7/GCS14, doxycycline 3 μg/ml) was 90.2±2.76 pmol GC.

`CC/C(=C(\c1ccccc1)c1ccc(OCCN(C)C)cc1)c1ccccc1` [tamoxifen, Tamoxifen] was tested, and the “ceramide level, increase over control” value (MCF-7-AdrR cells [3]) was 0.3 fold.
